For eight compounds, TGI and GI50 results are on record in PubChem BioAssay (NCI).

Test systems include OVCAR-8 ovarian; BT-549 breast; EKVX NSCLC; CCRF-CEM leukemia; RPMI-8226 leukemia; COLO 205 colon; SF-295 CNS; MOLT-4 leukemia; HCC-2998 colon; DU-145 prostate.
Holding throughout (assay): growth of human tumour cells (NCI), 48 h

Each structure is given as a SMILES string.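 Five concentrations, 48 hours, 96-well plates. Abbreviation: GI50, concentration required for 50% inhibition of growth. Definition used: TGI = concentration required for complete inhibition of growth.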

Take `COc1ccc(/C=C2\CCC(CN(C)C)C2=O)cc1OC` (centres undefined): the TGI worked out at 8.25 µM in the experiment on OVCAR-8 ovarian; 14.3 µM in the experiment with BT-549 breast; 34.1 µM with EKVX NSCLC; 6.74 µM with CCRF-CEM leukemia; 5.95 µM in the experiment on RPMI-8226 leukemia; 10.6 µM with COLO 205 colon. In addition, the TGI in the experiment on SF-295 CNS worked out at 29.2 µM; in the experiment on MOLT-4 leukemia, 7.35 µM; in the experiment with HCC-2998 colon it was 14.5 µM; with DU-145 prostate it was 20.4 µM.
In the case of `OCC1OC(n2cnc3c(=S)nc[nH]c32)C(O)C1O` (centres undefined), the GI50 was 6.36 µM in the experiment with OVCAR-8 ovarian; 62.7 µM in the experiment on BT-549 breast; above 100 µM with EKVX NSCLC; 3.35 µM in the experiment on CCRF-CEM leukemia; 2.57 µM in the experiment on RPMI-8226 leukemia; 8.34 µM in the experiment with COLO 205 colon. In addition, the GI50 in the experiment on SF-295 CNS is 3.49 µM; in the experiment with MOLT-4 leukemia, 2.58 µM; in the experiment with HCC-2998 colon, 2.46 µM. Also, the TGI in the experiment on OVCAR-8 ovarian is above 2500 µM; with BT-549 breast, above 2500 µM; in the experiment on EKVX NSCLC, above 2500 µM; in the experiment on CCRF-CEM leukemia, above 2500 µM; with RPMI-8226 leukemia, above 2500 µM; in the experiment with COLO 205 colon, above 2450 µM. Besides, the TGI in the experiment on SF-295 CNS, in the experiment with MOLT-4 leukemia, in the experiment with HCC-2998 colon and with DU-145 prostate was above 2500 µM in each case.
Take `CCNCCNc1cc(C2CCCCC2)c(C#N)c2nc3ccccc3n12`: the GI50 in the experiment on OVCAR-8 ovarian is 2.93 µM; in the experiment on BT-549 breast, 1.77 µM; in the experiment with EKVX NSCLC, 2.18 µM; in the experiment on CCRF-CEM leukemia, 1.3 µM; in the experiment with RPMI-8226 leukemia, 2.11 µM; in the experiment on COLO 205 colon, 1.58 µM. Moreover, the GI50 is 1.8 µM in the experiment on SF-295 CNS, 2.04 µM in the experiment on MOLT-4 leukemia, 2.53 µM in the experiment with HCC-2998 colon and 2.37 µM with DU-145 prostate. For the same compound, the TGI in the experiment on OVCAR-8 ovarian turned out to be 7.99 µM; with BT-549 breast, 3.64 µM; in the experiment on EKVX NSCLC, 6.84 µM; with CCRF-CEM leukemia it was 3.28 µM; in the experiment on RPMI-8226 leukemia it was 5.02 µM; in the experiment with COLO 205 colon, 3.41 µM. The TGI amounted to 3.36 µM in the experiment on SF-295 CNS, 4.97 µM with MOLT-4 leukemia, 6.79 µM with HCC-2998 colon and 5.79 µM in the experiment on DU-145 prostate.
Regarding `C=C1CCC2C3(C)COC(c4ccccc4Br)OC3CCC2(C)C1C/C=C1/C(=O)OCC1OC(C)=O` (centres undefined), the GI50 is 0.584 µM in the experiment with OVCAR-8 ovarian; 1.7 µM with BT-549 breast; 2.55 µM in the experiment on EKVX NSCLC; 0.381 µM with CCRF-CEM leukemia; 0.645 µM with RPMI-8226 leukemia; 1.66 µM with COLO 205 colon. Besides, the GI50 was 1.82 µM in the experiment on SF-295 CNS, 0.821 µM in the experiment on MOLT-4 leukemia, 1.73 µM in the experiment on HCC-2998 colon and 1.58 µM in the experiment on DU-145 prostate. Besides, the TGI in the experiment on OVCAR-8 ovarian worked out at 1.8 µM; in the experiment on BT-549 breast it was 3.71 µM; with EKVX NSCLC, 10.1 µM; in the experiment on CCRF-CEM leukemia it was 3.96 µM; with RPMI-8226 leukemia, 6.52 µM; in the experiment on COLO 205 colon it was 3.2 µM. For the same compound, the TGI amounted to 4.57 µM in the experiment on SF-295 CNS, 2.91 µM in the experiment on MOLT-4 leukemia, 3.31 µM in the experiment on HCC-2998 colon and 2.99 µM in the experiment with DU-145 prostate.
Turning to `Nc1n[nH]c2ccc([C@@H]3Nc4ccc5[nH]ncc5c4[C@H]4C5C=CC(C5)[C@@H]34)cc12` (some centres undefined), the GI50 was 0.563 µM with OVCAR-8 ovarian; 0.32 µM in the experiment with BT-549 breast; 0.505 µM in the experiment on EKVX NSCLC; 0.342 µM in the experiment on CCRF-CEM leukemia; 0.355 µM with RPMI-8226 leukemia; 0.332 µM with COLO 205 colon. For the same compound, the GI50 in the experiment with SF-295 CNS is 0.172 µM; in the experiment with MOLT-4 leukemia it was 0.433 µM; in the experiment on HCC-2998 colon it was 0.378 µM; with DU-145 prostate, 0.445 µM. The TGI is above 89.5 µM with OVCAR-8 ovarian; 7.05 µM with BT-549 breast; 43.2 µM in the experiment on EKVX NSCLC; above 55.6 µM in the experiment on CCRF-CEM leukemia; 11.5 µM with RPMI-8226 leukemia; 1.83 µM in the experiment on COLO 205 colon. Further, the TGI was 4.38 µM with SF-295 CNS, 40.7 µM with MOLT-4 leukemia, 12.1 µM in the experiment on HCC-2998 colon and above 30.8 µM in the experiment with DU-145 prostate.
Turning to `O=C(CN1CCN(c2ccccc2)CC1)N1CCN(c2nnc(-c3ccc(Cl)cc3)c(-c3ccc(Cl)cc3)n2)CC1`, the GI50 with OVCAR-8 ovarian was 16.3 µM; in the experiment on BT-549 breast it was 4.34 µM; in the experiment with EKVX NSCLC, 21.6 µM; in the experiment with CCRF-CEM leukemia, 8.08 µM; in the experiment with RPMI-8226 leukemia it was 3.88 µM; in the experiment on COLO 205 colon it was 3.61 µM. Moreover, the GI50 in the experiment with SF-295 CNS is 36 µM; in the experiment with MOLT-4 leukemia, 1.63 µM; in the experiment on HCC-2998 colon, 16.9 µM; with DU-145 prostate, 29.2 µM. Further, the TGI is above 100 µM with OVCAR-8 ovarian; 63.6 µM with BT-549 breast; above 100 µM in the experiment with EKVX NSCLC; above 100 µM with CCRF-CEM leukemia; 20 µM with RPMI-8226 leukemia; 27.7 µM with COLO 205 colon. The TGI with SF-295 CNS is above 100 µM; in the experiment with MOLT-4 leukemia it was 9.97 µM; with HCC-2998 colon, above 100 µM; in the experiment on DU-145 prostate, above 100 µM.
In the case of `Nc1ccc(-c2ccc(N)cc2I)c(I)c1`, the GI50 is 27.1 µM in the experiment with OVCAR-8 ovarian; 13.8 µM with BT-549 breast; 19.1 µM in the experiment with EKVX NSCLC; 8.14 µM in the experiment with CCRF-CEM leukemia; 14 µM in the experiment on RPMI-8226 leukemia; 17 µM with COLO 205 colon. Moreover, the GI50 in the experiment with SF-295 CNS is 15.5 µM; in the experiment on MOLT-4 leukemia, 9.89 µM; in the experiment with HCC-2998 colon, 19.1 µM; in the experiment with DU-145 prostate, 21.8 µM. The TGI is 94.7 µM in the experiment with OVCAR-8 ovarian; 36.1 µM in the experiment on BT-549 breast; 70.1 µM in the experiment with EKVX NSCLC; 43.3 µM in the experiment on CCRF-CEM leukemia; 37.7 µM with RPMI-8226 leukemia; 38.1 µM with COLO 205 colon. In addition, the TGI stood at 33.9 µM in the experiment on SF-295 CNS, 43.6 µM in the experiment on MOLT-4 leukemia, 42.2 µM with HCC-2998 colon and 59.9 µM with DU-145 prostate.
In the case of `COC(=O)C(F)C(Br)C(=O)OC` (centres undefined), the TGI with OVCAR-8 ovarian worked out at 12.6 µM; with BT-549 breast, 31 µM; in the experiment with EKVX NSCLC, 3.92 µM; in the experiment with CCRF-CEM leukemia it was 2.29 µM; in the experiment with RPMI-8226 leukemia, 3.88 µM; in the experiment with COLO 205 colon it was 3.46 µM. For the same compound, the TGI came to 70.1 µM in the experiment on SF-295 CNS, 3.01 µM in the experiment on MOLT-4 leukemia, 21 µM in the experiment with HCC-2998 colon and 27.5 µM in the experiment on DU-145 prostate.
